Reference: US8012944B2, “Method for treating cancer using IAP antisense oligomer and chemotherapeutic agent” (Pharmascience Inc., priority 2003, dated 2011)
Oligonucleotides are written 5' to 3', each unit as a sugar letter and its base; * is a phosphorothioate linkage, no mark a phosphodiester; rarer units and linkages stand in square brackets, end groups in braces. Plain capitals give the bases only. d = 2'-deoxy (DNA); m = 2'-O-methyl

Tests used:
XIAP mRNA [1] = experiment: XIAP mRNA knock-down in H460 cells (real-time RT-PCR / TaqMan); type: cell-based, human; conditions: 2 × 2 MBO; NCI-H460 cells, 9 hours post-transfection; relative level (mock control 1.01)
XIAP mRNA [2] = experiment: as above; type: cell-based, human
Description: RNA was extracted from cells lysed in RLT buffer (QIAGEN, Valencia, Calif.), and purified using QIAGEN RNeasy columns/kits. Real-time quantitative PCR was performed on a Perkin-Elmer ABI 7700 Prism PCR machine. RNA was reverse transcribed and amplified according to the TaqMan Universal PCR Master Mix protocol of PE Biosystems, using primers and probes designed to specifically recognize XIAP, HIAP1, survivin, or GAPDH. For human survivin, the forward primer was 5′-[…]-3′ (SEQ ID NO: 263), the reverse primer was 5′-GAAAGGAAAGCGCAACCG-3′ (SEQ ID NO: 264), and the probe was 5′-(FAM)[…](TAMRA)-3′ (SEQ ID NO: 265). For human HIAP1, the forward primer was 5′-[…]-3′ (SEQ ID NO: 266), the reverse primer was 5′-[…]-3′ (SEQ ID NO: 267), and the probe was 5′-(FAM)[…](TAMRA)-3′ (SEQ ID NO: 268). For human XIAP, the forward primer was 5′-[…]-3′ (SEQ ID NO: 269), the reverse primer was 5′-[…]-3′ (SEQ ID NO: 270), and the probe was 5′-(FAM)[…](TAMRA)-3′ (SEQ ID NO: 271). For human GAPDH, the forward primer was 5′-GAAGGTGAAGGTCGGAGTC-3′ (SEQ ID NO: 272), the reverse primer was 5′-GAAGATGGTGATGGGATTC-3′ (SEQ ID NO: 273), and the probe was 5′-(JOE)[…](TAMRA)-3′ (SEQ ID NO: 274). FAM is 6-carboxyfluoroscein, JOE is 6-carboxy-4,5-dichloro-2,7-dimethoxyfluoroscein, and TAMRA is 6-carboxy-N,N,N′,N′-tetramethylrhodamine. FAM and JOE are 5′ reporter dyes, while TAMRA is a 3′ quencher dye.
Relative quantification of gene expression was performed as described in the PE Biosystems manual using GAPDH as an internal standard. The comparative Ct (cycle threshold) method was used for relative quantitation of IAP mRNA levels compared to GAPDH mRNA levels. Briefly, real-time fluorescence measurements were taken at each PCR cycle and the threshold cycle (Ct) value for each sample was calculated by determining the point at which fluorescence exceeded a threshold limit of 30 times the baseline standard deviation. The average baseline value and the baseline SD are calculated starting from the third cycle baseline value and stopping at the baseline value three cycles before the signal starts to exponentially rise. The PCR primers and/or probes for the specific IAPs were designed to span at least one exon-intron boundary separated by 1 kb or more of genomic DNA, to reduce the possibility of amplifying and detecting genomic DNA contamination. The specificity of the signal, and possible contamination from DNA, were verified by treating some RNA samples with either DNase or RNase, prior to performing the reverse transcription and PCR reaction steps.
A portion of the 96 nucleobase oligomers depicted in Table 2 were rescreened for their ability to knock-down XIAP mRNA in NCI-H460 cells at […] post-transfection.
One day prior to transfection, H460 cells were plated in 6- or 96-well tissue culture plates. Phosphorothioate antisense oligonucleotides were delivered into cells with Lipofectamine 2000 (Life Technologies) in the form of liposome-oligonucleotide complexes. Following a 4.5 or 6 h transfection, the transfection medium was replaced with RPMI medium containing 10% FBS, and the cells incubated for another 24 or 48 h.
Total RNA from H460 cells treated with liposome-oligonucleotide complexes for 6 hours was immediately isolated using RNeasy mini spin columns and DNase treatment (QIAGEN, Valencia, Calif.). Specific XIAP mRNA was measured using a real-time quantitative RT-PCR method. […]

Substance | XIAP RNA (XIAP mRNA [1]) | XIAP down-regulation H460 RNA (XIAP mRNA [2]) [%]
GTTATAGGAGCTAACAAAT (antisense; sugars from the 5' end m2 d15 m2, backbone and T or U not given here; further chemistry not fully specified) [Code B3] | 0.64 | 34
TCTGCCATGGATGGATTTC (antisense; sugars from the 5' end m2 d15 m2, backbone, methylation of C and T or U not given here; further chemistry not fully specified) [Code G7] | 0.66 | 41
CAGATATATATGTAACACT (antisense; sugars from the 5' end m2 d15 m2, backbone and T or U not given here; further chemistry not fully specified) [Code C1] | 0.3 | 66
TACACTTAGAAATTAAATC (antisense; sugars from the 5' end m2 d15 m2, backbone, methylation of C and T or U not given here; further chemistry not fully specified) [Code A12] | 0.54 | 46
GCGGCCCAAAACAAAGAAG (antisense CCGGCCCAAAACAAAGAAG; sugars from the 5' end m2 d15 m2, linkages s1 o16 s1 (s phosphorothioate, o phosphodiester), methylation of C not given here) [Code C7] | 0.27 | 72
TCGGGTATATGGTGTCTGA (antisense; chemistry not fully specified) [Code A6] | 0.27 | 72
AGTATGAAATATTTCTGAT (antisense; sugars from the 5' end m2 d15 m2, backbone and T or U not given here; further chemistry not fully specified) [Code E1] | 0.31 | 69
TTAGCAAAATATGTTTTAA (antisense; sugars from the 5' end m2 d15 m2, backbone and T or U not given here; further chemistry not fully specified) [Code G1] | 0.67 | 33
TAGATCTGGAACCAGAACC (antisense; sugars from the 5' end m2 d15 m2, backbone, methylation of C and T or U not given here; further chemistry not fully specified) [Code C10] | 0.56 | 53
ATTCAATCAGGGTAATAAG (antisense; sugars from the 5' end m2 d15 m2, backbone, methylation of C and T or U not given here; further chemistry not fully specified) [Code E11] | 0.52 | 48
CATCTTGGATACTGTCTTT (antisense; sugars from the 5' end m2 d15 m2, backbone, methylation of C and T or U not given here; further chemistry not fully specified) [Code D10] | 0.54 | 55
GAGTAAAAAAAATGGATAA (mG*mAdGdTdAdAdAdAdAdAdAdAdTdGdGdAdTmA*mA; antisense) [Code G11] | 0.67 | 33
GTTAGTGATGGTGTTTTGT (antisense; sugars from the 5' end m2 d15 m2, backbone and T or U not given here; further chemistry not fully specified) [Code E9] | 0.69 | 43
AGCACATGGGACACTTGTC (antisense; sugars from the 5' end m2 d15 m2, backbone, methylation of C and T or U not given here; further chemistry not fully specified) [Code B11] | 0.39 | 63
ATTATTTTCTTAATGTCCT (antisense; sugars from the 5' end m2 d15 m2, backbone, methylation of C and T or U not given here; further chemistry not fully specified) [Code A10] | 0.85 | 29
AGTTCTCAAAAGATAGTCT (antisense; sugars from the 5' end m2 d15 m2, backbone and T or U not given here; further chemistry not fully specified) [Code G5] | 0.68 | 30
GGCCAGTTCTGAAAGGACT (antisense; sugars from the 5' end m2 d15 m2, backbone and T or U not given here; further chemistry not fully specified) [Code D6] | 0.39 | 60
ACATAGTGTTTTGCCACTT (antisense; sugars from the 5' end m2 d15 m2, backbone, methylation of C and T or U not given here; further chemistry not fully specified) [Code F12] | 0.26 | 74
GTGTCTGATATATCTACAA (antisense; sugars from the 5' end m2 d15 m2, backbone and T or U not given here; further chemistry not fully specified) [Code H5] | 0.59 | 39
CTTTGATCTGGCTCAGACT (antisense; sugars from the 5' end m2 d15 m2, backbone, methylation of C and T or U not given here; further chemistry not fully specified) [Code G12] | 0.24 | 76
AAGCAGTGCACTTGGTCAC (antisense; sugars from the 5' end m2 d15 m2, linkages s1 o16 s1 (s phosphorothioate, o phosphodiester), methylation of C not given here) [Code G6] | – | 69
ACTGGGCTTCCAATCAGTT (antisense; sugars from the 5' end m2 d15 m2, backbone, methylation of C and T or U not given here; further chemistry not fully specified) [Code H8] | 0.61 | –
TATCCACTTATGACATAAA (antisense; chemistry not fully specified) [Code A3] | – | 27
MAmUGACCACTTCCTCTATmGmG (ANGACCACNNCCNCNANGG; 2'-O-methyl modifications, chemistry not fully specified) [DE4 rev, reference compound] | 1.06 | –
ACAGGACTACCACTTGGAA (antisense; chemistry not fully specified) [Code B4] | – | 76
ATTGGTTCCAATGTGTTCT (antisense; chemistry not fully specified) [Code F1] | – | 81
